Tests used:
[1] = target: T1, ROCK2 (Homo sapiens, UniProt O75116); assay: ROCK2 kinase assay (Reaction Biology Hot Spot kinase assay); format: biochemical; details: purified kinase, 33P-ATP (10 μM), P81 filter-binding method
T1 construct: purchased Reaction Biology
Protocol: (§1) ROCK2 and ROCK] kinase assays
(§2) ROCK2 and ROCK1 enzyme potencies were determined by Reaction Biology (www.reactionbiology.com) using their Hot Spot kinase Assay. The base reaction buffer for the assay was 20 mM Hepes (pH 7.5), 10 mM MgCl2, 1 mM EGTA, 0.01% Brij35, 0.02 mg/mL BSA, 0.1 mM Na3VO4, and 2 mM DTT with a 1% DMSO concentration. Required cofactors were added individually to each kinase reaction. The substrate was freshly prepared in the reaction buffer described above, and then cofactors were delivered. The purified kinase was added to the substrate solution and then gently mixed. Compounds were added from 100% DMSO into the kinase reaction mixture by Acoustic technology (Echo550; nanoliter range) and then incubated for 20 min at room temperature. ^33P-ATP (10 μM) was delivered to initiate the reaction, and then the mixture was incubated again for two hours at room temperature. […] Nat. Biotechnol. 2011 Oct. 30; 29(11):1039-45. doi: 10.1038/nbt.2017.
(§3) The compounds were categorized based on IC50 value as “+”, “++”, “+++”, and “++++”. The category “+” refers to compounds with ROCK IC50 value of >10 μM. The category “++” refers to compounds with a ROCK IC50 value of 10 to 3 μM. The category “+++” refers to compounds with ROCK IC50 value of 3 to 0.3 μM. The category “++++” refers to compounds with a ROCK IC50 value of <0.3 μM. “ND” refers to “not determined.” The compound of an “Example Number” is the final product of an Example entitled the Example Number.

[2] = target: T2, ROCK1 (Homo sapiens, UniProt Q13464); assay: ROCK1 kinase assay (Reaction Biology Hot Spot kinase assay); format: biochemical; details: purified kinase, 33P-ATP (10 μM), P81 filter-binding method
T2 construct: purchased Reaction Biology
Protocol: as §1, §2, §3

T2 sequence (Q13464 whole entry): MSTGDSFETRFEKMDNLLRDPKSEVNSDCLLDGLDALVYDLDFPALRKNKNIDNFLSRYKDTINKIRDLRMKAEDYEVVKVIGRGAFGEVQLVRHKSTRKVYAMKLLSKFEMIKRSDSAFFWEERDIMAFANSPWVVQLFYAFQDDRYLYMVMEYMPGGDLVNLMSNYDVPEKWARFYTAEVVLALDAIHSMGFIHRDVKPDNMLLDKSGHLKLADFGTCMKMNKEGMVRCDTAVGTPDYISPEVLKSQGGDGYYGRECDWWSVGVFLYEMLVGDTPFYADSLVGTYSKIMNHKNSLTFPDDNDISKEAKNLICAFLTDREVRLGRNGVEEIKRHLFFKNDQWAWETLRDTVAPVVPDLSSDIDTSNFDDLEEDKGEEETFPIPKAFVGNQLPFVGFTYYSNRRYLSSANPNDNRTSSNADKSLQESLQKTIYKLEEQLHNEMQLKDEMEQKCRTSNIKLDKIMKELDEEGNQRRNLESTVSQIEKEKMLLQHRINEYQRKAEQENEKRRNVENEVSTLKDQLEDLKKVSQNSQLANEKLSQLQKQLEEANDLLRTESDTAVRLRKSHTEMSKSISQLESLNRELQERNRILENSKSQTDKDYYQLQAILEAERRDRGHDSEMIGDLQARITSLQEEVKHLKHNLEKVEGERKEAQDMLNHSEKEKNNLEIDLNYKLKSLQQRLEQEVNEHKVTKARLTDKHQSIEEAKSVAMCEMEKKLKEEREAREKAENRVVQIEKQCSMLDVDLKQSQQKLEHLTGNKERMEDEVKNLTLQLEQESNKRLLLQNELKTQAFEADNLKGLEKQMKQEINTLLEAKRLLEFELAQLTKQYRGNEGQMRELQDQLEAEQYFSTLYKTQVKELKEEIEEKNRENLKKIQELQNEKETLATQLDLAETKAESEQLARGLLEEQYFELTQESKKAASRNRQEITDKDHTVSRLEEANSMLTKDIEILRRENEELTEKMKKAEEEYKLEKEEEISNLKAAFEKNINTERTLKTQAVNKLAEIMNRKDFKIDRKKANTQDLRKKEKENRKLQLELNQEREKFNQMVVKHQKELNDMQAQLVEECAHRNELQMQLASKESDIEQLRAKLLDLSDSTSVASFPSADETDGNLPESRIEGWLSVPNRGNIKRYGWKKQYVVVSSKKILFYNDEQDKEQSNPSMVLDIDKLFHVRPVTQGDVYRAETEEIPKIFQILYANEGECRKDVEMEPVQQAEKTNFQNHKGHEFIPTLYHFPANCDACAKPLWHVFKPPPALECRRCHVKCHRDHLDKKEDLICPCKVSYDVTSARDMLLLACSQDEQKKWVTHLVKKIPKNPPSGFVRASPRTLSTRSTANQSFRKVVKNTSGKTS
T1 sequence (O75116 whole entry): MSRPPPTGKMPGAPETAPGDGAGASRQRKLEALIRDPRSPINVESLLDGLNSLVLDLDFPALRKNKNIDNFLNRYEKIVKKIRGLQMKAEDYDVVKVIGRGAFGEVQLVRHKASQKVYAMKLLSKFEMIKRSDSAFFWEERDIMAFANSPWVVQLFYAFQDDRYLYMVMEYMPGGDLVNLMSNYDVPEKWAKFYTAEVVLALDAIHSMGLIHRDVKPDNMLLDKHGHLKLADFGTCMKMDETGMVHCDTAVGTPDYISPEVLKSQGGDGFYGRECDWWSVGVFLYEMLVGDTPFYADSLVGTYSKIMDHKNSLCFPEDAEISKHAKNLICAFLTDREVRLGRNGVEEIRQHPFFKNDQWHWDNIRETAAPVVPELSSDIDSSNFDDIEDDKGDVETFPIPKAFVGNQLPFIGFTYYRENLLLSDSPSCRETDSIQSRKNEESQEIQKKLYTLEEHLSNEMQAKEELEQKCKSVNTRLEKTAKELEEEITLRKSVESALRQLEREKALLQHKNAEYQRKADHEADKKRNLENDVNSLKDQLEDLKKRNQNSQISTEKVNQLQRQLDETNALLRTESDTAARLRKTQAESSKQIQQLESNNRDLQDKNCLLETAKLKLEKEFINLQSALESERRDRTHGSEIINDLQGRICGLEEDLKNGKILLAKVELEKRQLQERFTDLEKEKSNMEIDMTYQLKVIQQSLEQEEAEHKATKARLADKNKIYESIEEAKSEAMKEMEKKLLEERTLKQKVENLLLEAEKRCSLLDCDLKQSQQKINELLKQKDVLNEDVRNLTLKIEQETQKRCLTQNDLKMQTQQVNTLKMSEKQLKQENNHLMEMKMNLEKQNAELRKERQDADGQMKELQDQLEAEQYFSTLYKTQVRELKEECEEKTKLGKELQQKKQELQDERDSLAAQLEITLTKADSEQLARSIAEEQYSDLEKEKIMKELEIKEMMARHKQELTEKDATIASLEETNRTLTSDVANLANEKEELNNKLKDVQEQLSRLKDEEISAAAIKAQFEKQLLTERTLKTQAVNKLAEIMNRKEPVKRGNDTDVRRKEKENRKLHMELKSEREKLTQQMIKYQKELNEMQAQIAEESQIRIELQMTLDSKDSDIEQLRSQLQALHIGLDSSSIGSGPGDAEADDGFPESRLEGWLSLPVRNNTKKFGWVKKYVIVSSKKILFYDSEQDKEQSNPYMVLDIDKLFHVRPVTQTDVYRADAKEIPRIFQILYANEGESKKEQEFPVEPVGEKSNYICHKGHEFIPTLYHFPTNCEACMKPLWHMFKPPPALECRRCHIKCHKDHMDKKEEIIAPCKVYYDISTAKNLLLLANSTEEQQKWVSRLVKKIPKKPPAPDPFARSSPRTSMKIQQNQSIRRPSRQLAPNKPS

SMILES | IC50 [1] | IC50 [2]
Cn1cc(C(=O)Nc2cccc(-n3ccc(Nc4ccc5[nH]ncc5c4)n3)c2)cn1 [Example 1, N-(3-(3-((1H-indazol-5-yl)amino)-1H-pyrazol-1-yl)phenyl)-1-methyl-1H-pyrazole-4-carboxamide] | 300 to 3000 nM | 3000 to 10000 nM
Cc1cn(-c2cccc(NC(=O)c3cnn(C)c3)c2)nc1Nc1ccc2[nH]ncc2c1 [Example 3, N-(3-(3-((1H-indazol-5-yl)amino)-4-methyl-1H-pyrazol-1-yl)phenyl)-1-methyl-1H-pyrazole-4-carboxamide] | < 300 nM | < 300 nM
Cc1cn(-c2cccc(NC(=O)c3cccnc3)c2)nc1Nc1ccc2[nH]ncc2c1 [Example 4, N-(3-(3-((1H-indazol-5-yl)amino)-4-methyl-1H-pyrazol-1-yl)phenyl)nicotinamide] | < 300 nM | < 300 nM
Cc1cc(Nc2ccc3[nH]ncc3c2)nn1-c1cccc(NC(=O)c2c[nH]cn2)c1 [Example 5, N-(3-(3-((1H-indazol-5-yl)amino)-5-methyl-1H-pyrazol-1-yl)phenyl)-1H-imidazole-4-carboxamide] | < 300 nM | 300 to 3000 nM
O=C(Nc1cccc(-n2ccc(Nc3ccc4[nH]ncc4c3)n2)c1)c1cccnc1 [Example 6] | 300 to 3000 nM | 300 to 3000 nM
Cc1cc(Nc2ccc3[nH]ncc3c2)nn1-c1cccc(NC(=O)c2cccnc2)c1 [Example 9] | < 300 nM | 300 to 3000 nM
COc1cc(-n2ccc(Nc3ccc4[nH]ncc4c3)n2)ccc1OCC(=O)NC(C)C [Example 11] | 300 to 3000 nM | > 10000 nM
COc1cc(-n2ccc(Nc3ccc4[nH]ncc4c3Cl)n2)ccc1OCC(=O)NC(C)C [Example 12] | < 300 nM | 300 to 3000 nM
COc1cc(-n2cc(C)c(Nc3ccc4[nH]ncc4c3Cl)n2)ccc1OCC(=O)NC(C)C [Example 13] | < 300 nM | 300 to 3000 nM
COc1cc(-n2nc(Nc3ccc4[nH]ncc4c3Cl)cc2C)ccc1OCC(=O)NC(C)C [Example 14] | 300 to 3000 nM | > 10000 nM
CC(C)NC(=O)COc1ccc(-n2nc(Nc3ccc4[nH]ncc4c3)c3ccccc32)cc1 [Example 16] | 300 to 3000 nM | > 10000 nM
COc1cc(-n2nc(Nc3ccc4[nH]ncc4c3)c3ccccc32)ccc1OCC(=O)NC(C)C [Example 17] | < 300 nM | 300 to 3000 nM
COc1cc(-n2nc(Nc3ccc4[nH]ncc4c3Cl)c3ccccc32)ccc1OCC(=O)NC(C)C [Example 18] | 300 to 3000 nM | 3000 to 10000 nM
COc1nc(-n2nc(Nc3ccc4[nH]ncc4c3Cl)c3ccccc32)ccc1OCC(=O)NC(C)C [Example 19] | < 300 nM | < 300 nM
Cn1cc(C(=O)Nc2cccc(-n3nc(Nc4ccc5[nH]ncc5c4)c4ccccc43)c2)cn1 [Example 21] | 300 to 3000 nM | 3000 to 10000 nM
O=C(Nc1cccc(-n2nc(Nc3ccc4[nH]ncc4c3)c3ccccc32)c1)c1c[nH]cn1 [Example 22] | 300 to 3000 nM | 3000 to 10000 nM
COc1ncc(C(=O)Nc2cccc(-n3nc(Nc4ccc5[nH]ncc5c4)c4ccccc43)c2)cn1 [Example 25] | 300 to 3000 nM | 300 to 3000 nM
O=C(Cc1ccccn1)Nc1cccc(-n2nc(Nc3ccc4[nH]ncc4c3)c3ccccc32)c1 [Example 26] | 300 to 3000 nM | 3000 to 10000 nM
O=C(Cc1ncc[nH]1)Nc1cccc(-n2nc(Nc3ccc4[nH]ncc4c3)c3ccccc32)c1 [Example 27] | 300 to 3000 nM | 3000 to 10000 nM
Cn1cc(C(=O)Nc2cccc(-n3nc(Nc4ccc5[nH]ncc5c4Cl)c4ccccc43)c2)cn1 [Example 31] | < 300 nM | 300 to 3000 nM
O=C(Nc1cccc(-n2nc(Nc3ccc4[nH]ncc4c3Cl)c3ccccc32)c1)c1cccnc1 [Example 32] | < 300 nM | > 10000 nM
Cn1cc(C(=O)Nc2cccc(-c3cc(Nc4ccc5[nH]ncc5c4)no3)c2)cn1 [Example 33] | < 300 nM | < 300 nM
O=C(Nc1cccc(-c2cc(Nc3ccc4[nH]ncc4c3)no2)c1)c1c[nH]cn1 [Example 34, N-(3-(3-((1H-indazol-5-yl)amino)isoxazol-5-yl)phenyl)-1H-imidazole-4-carboxamide] | < 300 nM | < 300 nM

SMILES | IC50 [1] | IC50 [2]
O=C(Nc1cccc(-c2cc(Nc3ccc4[nH]ncc4c3)no2)c1)c1cccnc1 [Example 35] | < 300 nM | 300 to 3000 nM
Cn1cc(C(=O)Nc2cccc(-c3nnc(Nc4ccc5[nH]ncc5c4)o3)c2)cn1 [Example 36] | < 300 nM | < 300 nM
O=C(Nc1cccc(-c2nnc(Nc3ccc4[nH]ncc4c3)o2)c1)c1cn[nH]c1 [Example 37] | > 10000 nM | > 10000 nM
O=C(Nc1cccc(-c2nnc(Nc3ccc4[nH]ncc4c3)o2)c1)c1cccnc1 [Example 38] | < 300 nM | < 300 nM
Cn1cc(C(=O)Nc2cccc(-c3nc(Nc4ccc5[nH]ncc5c4)no3)c2)cn1 [Example 39] | < 300 nM | < 300 nM
O=C(Nc1cccc(-c2nc(Nc3ccc4[nH]ncc4c3)no2)c1)c1cn[nH]c1 [Example 40] | < 300 nM | < 300 nM
O=C(Nc1cccc(-c2nc(Nc3ccc4[nH]ncc4c3)no2)c1)c1cccnc1 [Example 41] | < 300 nM | 300 to 3000 nM
Cn1cc(C(=O)Nc2cccc(-c3noc(Nc4ccc5[nH]ncc5c4)n3)c2)cn1 [Example 42] | < 300 nM | < 300 nM
O=C(Nc1cccc(-c2noc(Nc3ccc4[nH]ncc4c3)n2)c1)c1cccnc1 [Example 44] | < 300 nM | < 300 nM
Cn1cc(C(=O)Nc2cccc(-n3nc(Nc4ccc5[nH]ncc5c4)c4ccccc43)n2)cn1 [Example 45, N-(6-(3-((1H-indazol-5-yl)amino)-1H-indazol-1-yl)pyridin-2-yl)-1-methyl-1H-pyrazole-4-carboxamide] | < 300 nM | < 300 nM
Cn1cc(C(=O)Nc2cccc(-n3nc(Nc4ccc5[nH]ncc5c4Cl)c4ccccc43)n2)cn1 [Example 46] | < 300 nM | < 300 nM
Cn1cc(C(=O)Nc2ccnc(-n3nc(Nc4ccc5[nH]ncc5c4Cl)c4ccccc43)c2)cn1 [Example 47] | > 10000 nM | > 10000 nM
Cc1coc(-c2cc(-c3nnc(Nc4ccc5[nH]ncc5c4Cl)o3)ccn2)n1 [Example 48, N-(4-chloro-1H-indazol-5-yl)-5-(2-(4-methyloxazol-2-yl)pyridin-4-yl)-1,3,4-oxadiazol-2-amine] | < 300 nM | < 300 nM
Clc1c(Nc2nnc(-c3ccnc(-c4ncco4)c3)o2)ccc2[nH]ncc12 [Example 49] | < 300 nM | < 300 nM
Clc1c(Nc2nnc(-c3cccc(-c4ncco4)c3)o2)ccc2[nH]ncc12 [Example 50, N-(4-chloro-1H-indazol-5-yl)-5-(3-(oxazol-2-yl)phenyl)-1,3,4-oxadiazol-2-amine] | < 300 nM | < 300 nM
Cn1cc(-c2nnc(Nc3ccc4[nH]ncc4c3Cl)o2)cc(NC(=O)c2ccccc2F)c1=O [Example 52, N-(5-(5-((4-chloro-1H-indazol-5-yl)amino)-1,3,4-oxadiazol-2-yl)-1-methyl-2-oxo-1,2-dihydropyridin-3-yl)-2-fluorobenzamide] | < 300 nM | < 300 nM
Cn1cc(C(=O)Nc2cc(-n3nc(Nc4ccc5[nH]ncc5c4Cl)c4ccccc43)ccn2)cn1 [Example 53, N-(4-(3-((4-chloro-1H-indazol-5-yl)amino)-1H-indazol-1-yl)pyridin-2-yl)-1-methyl-1H-pyrazole-4-carboxamide] | < 300 nM | 3000 to 10000 nM
Cn1cc(C(=O)Nc2cncc(-n3nc(Nc4ccc5[nH]ncc5c4Cl)c4ccccc43)c2)cn1 [Example 54, N-(5-(3-((4-chloro-1H-indazol-5-yl)amino)-1H-indazol-1-yl)pyridin-3-yl)-1-methyl-1H-pyrazole-4-carboxamide] | > 10000 nM | > 10000 nM
Cn1cc(C(=O)Nc2cccc(-c3nnc(Nc4ccc5[nH]ncc5c4Cl)o3)c2)cn1 [Example 55, N-(3-(5-((4-chloro-1H-indazol-5-yl)amino)-1,3,4-oxadiazol-2-yl)phenyl)-1-methyl-1H-pyrazole-4-carboxamide] | < 300 nM | < 300 nM
Cn1cc(C(=O)Nc2cccc(-n3nc(Nc4ccc5[nH]ncc5c4Cl)c4ncccc43)c2)cn1 [Example 56, N-(3-(3-((4-chloro-1H-indazol-5-yl)amino)-1H-pyrazolo[4,3-b]pyridin-1-yl)phenyl)-1-methyl-1H-pyrazole-4-carboxamide] | < 300 nM | 300 to 3000 nM
Cn1cc(C(=O)Nc2cc(-n3nc(Nc4ccc5[nH]ncc5c4Cl)c4ccccc43)ccc2F)cn1 [Example 57, N-(5-(3-((4-chloro-1H-indazol-5-yl)amino)-1H-indazol-1-yl)-2-fluorophenyl)-1-methyl-1H-pyrazole-4-carboxamide] | < 300 nM | < 300 nM
Cn1cc(C(=O)Nc2cccc(-n3nc(Nc4ccc5[nH]ncc5c4Cl)c4cnccc43)c2)cn1 [Example 58] | < 300 nM | < 300 nM
